In the supplement of paper PMC4862054:
Several values for one entry are separate records, joined by “and”; a condition that tells them apart may be missing. Equal values may be shown once.

Columns and labels:
Assay in all cases: normalised viability (% of control), CellTiter-Blue; higher = more viable cells (about 100 = DMSO control)
Settings in all cases: incubation time: 72 h
[1] = tested on: CAL-85-1
Method: (§1)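 DSRT, CellTiter-Blue viability, 72 h incubation. Signal is normalised to DMSO and benzethonium chloride controls. Value is the normalised response at dose 8.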

[2] = tested on: DU-4475
Method: as §1

[3] = tested on: HDQ-P1
Method: as §1

[4] = tested on: MDA-MB-453
Method: as §1

[5] = tested on: CAL-148
Method: as §1

[6] = tested on: CAL-51
Method: as §1

[7] = tested on: CAL-85-1; remark: listed apart in the source
Method: (§2)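 DSRT, CellTiter-Blue viability, 72 h incubation. Signal is normalised to DMSO and benzethonium chloride controls. Value is the normalised response at dose 6.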

[8] = tested on: DU-4475; remark: listed apart in the source
Method: as §2

[9] = tested on: HDQ-P1; remark: listed apart in the source
Method: as §2

[10] = tested on: MDA-MB-453; remark: listed apart in the source
Method: as §2

[11] = tested on: CAL-148; remark: listed apart in the source
Method: as §2

[12] = tested on: CAL-51; remark: listed apart in the source
Method: as §2

| Structure (SMILES) | normalised viability [1] | normalised viability [2] | normalised viability [3] | normalised viability [4] | normalised viability [5] | normalised viability [6] | normalised viability [7] | normalised viability [8] | normalised viability [9] | normalised viability [10] | normalised viability [11] | normalised viability [12] |
| --- | --- | --- | --- | --- | --- | --- | --- | --- | --- | --- | --- | --- |
| O=S(=O)(c1cccc2cnccc12)N1CCCNCC1 [Fasudil] (3000 nM) | 101% | 113% | 121% | 99.4% | 81.2% | 118% |  |  |  |  |  |  |
| CS(=O)(=O)N1CCN(Cc2cc3nc(-c4cccc5[nH]ncc45)nc(N4CCOCC4)c3s2)CC1 [GDC-0941] (300 nM) |  |  |  |  |  |  | 73.2% | 83.2% | 37.6% | 43.4% | 83.5% | 61% |
| CS(=O)(=O)N1CCN(Cc2cc3nc(-c4cccc5[nH]ncc45)nc(N4CCOCC4)c3s2)CC1 [GDC-0941] (3000 nM) | 31.9% | 104% | 14.5% | 10.6% | 18.6% | 14.3% |  |  |  |  |  |  |
| Cc1c(CN2CCN(C(=O)[C@H](C)O)CC2)sc2c(N3CCOCC3)nc(-c3cnc(N)nc3)nc12 [GDC-0980] (300 nM) |  |  |  |  |  |  | 62% | 68.3% | 29.7% | 18.3% | 52.1% | 38.7% |
| Cc1c(CN2CCN(C(=O)[C@H](C)O)CC2)sc2c(N3CCOCC3)nc(-c3cnc(N)nc3)nc12 [GDC-0980] (3000 nM) | 16.9% | 19.4% | 14.2% | 6.67% | 5.28% | 7.42% |  |  |  |  |  |  |
| Nc1cccc2c1CN(C1CCC(=O)NC1=O)C2=O (stereo unspecified) [Lenalidomide] (300 nM) |  |  |  |  |  |  | 87.3% and 90.2% | 103% and 86.6% | 66.2% and 69.3% | 97.7% and 101% | 92% and 96.1% | 107% and 103% |
| Nc1cccc2c1CN(C1CCC(=O)NC1=O)C2=O (stereo unspecified) [Lenalidomide] (3000 nM) | 88.6% and 90.2% | 101% and 100% | 93.5% and 92.2% | 96.9% and 117% | 80.2% and 98.3% | 109% and 105% |  |  |  |  |  |  |
| C[C@]12O[C@H](C[C@]1(O)CO)n1c3ccccc3c3c4c(c5c6ccccc6n2c5c31)CNC4=O [Lestaurtinib] (30 nM) |  |  |  |  |  |  | 114% | 91.3% | 84.5% | 105% | 107% | 111% |
| C[C@]12O[C@H](C[C@]1(O)CO)n1c3ccccc3c3c4c(c5c6ccccc6n2c5c31)CNC4=O [Lestaurtinib] (300 nM) | 65% | 26.7% | 92.4% | 50.2% | 75.9% | 76.5% |  |  |  |  |  |  |
| O=C1c2c(O)ccc(O)c2C(=O)c2c(NCCNCCO)ccc(NCCNCCO)c21 [Mitoxantrone] (30 nM) |  |  |  |  |  |  | 73.1% | 21.7% | 63.9% | 98% | 56.1% | 42.9% |
| O=C1c2c(O)ccc(O)c2C(=O)c2c(NCCNCCO)ccc(NCCNCCO)c21 [Mitoxantrone] (300 nM) | 59.1% | 9.52% | 52.5% | 66% | 12.7% | 28% |  |  |  |  |  |  |
| Nc1ccccc1NC(=O)c1ccc(CNc2nccc(-c3cccnc3)n2)cc1 [Mocetinostat] (300 nM) |  |  |  |  |  |  | 85.8% | 81.9% | 57.8% | 69% | 87.5% | 92.9% |
| Nc1ccccc1NC(=O)c1ccc(CNc2nccc(-c3cccnc3)n2)cc1 [Mocetinostat] (3000 nM) | 23.6% | 5.41% | 71.6% | 20.6% | 37.3% | 51.7% |  |  |  |  |  |  |
| COc1nc(N)nc2c1ncn2[C@@H]1O[C@H](CO)[C@@H](O)[C@@H]1O [Nelarabine] (3000 nM) | 94.5% and 98% | 121% and 112% | 74.7% and 87.7% | 86.7% and 106% | 90.6% and 84.7% | 102% and 97.6% |  |  |  |  |  |  |
| Cc1ccc(Nc2nccc(N(C)c3ccc4c(C)n(C)nc4c3)n2)cc1S(N)(=O)=O [Pazopanib] (300 nM) |  |  |  |  |  |  | 96.1% | 102% | 64% | 88.4% | 85.7% | 95.6% |
| O=C(CCBr)N1CCN(C(=O)CCBr)CC1 [Pipobroman] (300 nM) |  |  |  |  |  |  | 101% | 110% | 87.1% | 113% | 107% | 106% |
| c1cc(CN2CCCNCCNCCCNCC2)ccc1CN1CCCNCCNCCCNCC1 [Plerixafor] (75 nM) |  |  |  |  |  |  | 95% | 101% | 84% | 93.3% | 85.9% | 103% |
| C[C@]12C=CC(=O)C=C1CC[C@@H]1[C@@H]2[C@@H](O)C[C@@]2(C)[C@H]1CC[C@]2(O)C(=O)CO [Prednisolone] (300 nM) |  |  |  |  |  |  | 110% | 113% | 64.2% | 79.4% | 105% | 104% |
| CNC(=O)c1cc(Oc2ccc(NC(=O)Nc3ccc(Cl)c(C(F)(F)F)c3)cc2)ccn1 [Sorafenib] (30 nM) |  |  |  |  |  |  | 97.6% and 103% | 101% and 115% | 81.1% and 72.2% | 106% and 99.1% | 109% and 91.4% | 108% and 101% |
| CNC(=O)c1cc(Oc2ccc(NC(=O)Nc3ccc(Cl)c(C(F)(F)F)c3)cc2)ccn1 [Sorafenib] (300 nM) | 83.4% and 99.7% | 104% and 99.8% |  | 96.8% and 108% | 93.4% and 99% | 109% and 102% |  |  |  |  |  |  |
| CCN(CC)CCNC(=O)c1c(C)[nH]c(/C=C2\C(=O)Nc3ccc(F)cc32)c1C [Sunitinib] (30 nM) |  |  |  |  |  |  | 96.7% and 96.2% | 84.4% and 92.7% | 74.4% and 92.3% | 93.3% and 81.3% | 99.5% and 101% | 111% and 91.1% |
| CC[C@@]1(O)C(=O)OCc2c1cc1n(c2=O)Cc2cc3c(CN(C)C)c(O)ccc3nc2-1 [Topotecan] (30 nM) |  |  |  |  |  |  | 95.9% | 56.8% | 82.3% | 90.6% | 71.3% | 94.8% |
